Here are results for one sequence from article PMC3341351, “Down-Regulation of GABAA Receptor via Promiscuity with the Vasoactive Peptide Urotensin II Receptor. Potential Involvement in Astrocyte Plasticity” (PLoS ONE, 2012).

This assay deals with GABAAR co-expressed with UT^HA 370. The assay can be described thus: Patch-clamp of Iso-evoked current in CHO co-expressing GABAAR and truncated UT^HA 370. It is filed as cell-based. Particulars: hUII 10^−8 M, 1 min, Iso 10^−4 M, 2 s. From the text:
For UT epitope-tagged with HA (UT^HA), or c-myc (UT^c-myc), human UT receptor cDNA inserted into pcDNA3.1 (Ressource Center, MI, USA) was amplified and PCR products were subcloned using the EcoRI and XhoI sites of pCMV-HA or pCMV-c-myc. Mutant UT receptor cDNAs were constructed by oligonucleotide-directed mutagenesis (Expand High Fidelity PCR System; Roche) using the human UT receptor cDNA inserted into pcDNA3.1 as a template. Two sets of forward and reverse oligonucleotides were used (Table S2) to introduce stop codons in frame of Leu370, Phe351, Gly332 and Thr319 (to generate UT371, UT351, UT332 and UT319, respectively). PCR products were subcloned using the EcoRI and XhoI sites of pCMV-HA after digestion by the same restriction enzymes. Mutagenesis was confirmed by automated nucleotide sequencing.
The conventional whole-cell configuration of the patch-clamp technique was used to study the GABA-gated currents in astrocytes and granule neurons, UT stably transfected CHO, CHO-UT, and CHO transiently transfected with diverse variants of UT and GABAAR subunits. After 24-h transfection, cell culture coverslips were placed in a small chamber (1.5 ml) on a stage of a right microscope DMLFSA (Leica, Heidelberg, Germany) and superfused continuously with the following bath solution containing (in mM): NaCl, 150; KCl, 2.5; HEPES, 5; CaCl2, 2; MgCl2, 1; glucose, 10 (pH 7.4 adjusted with NaOH). […]
Background: In patch-clamp work, channel activity is measured electrically.

As for “ETPDCFWKYCV (disulfide) [hUII, human urotensin II, synthesized by solid phase methodology]”, the “hUII-induced fast short-term inhibition with UT^HA 370” value was “totally abolished”. Also, for the setting “washout”, the “hUII-induced long-term inhibition with UT^HA 370” value was “delayed, and significantly altered”.
